Data: publication PMC10451623 (Antioxidants, 2023)
Each block holds one molecule with its values, some of them ahead of it. No end group written: not given here. *: point of attachment. Biotin = O=C1N[C@H]2[C@H](CS[C@H]2CCCCC(=O)*)N1

Key:
[1] = target: T1, PPARα-LBD (Homo sapiens, UniProt Q07869); assay: Thermal stability assay using circular dichroism spectroscopy; assay type: binding; set-up: Human PPARα-LBD (amino acids 200–468); His tag (pET28a) (N); made in house; host or cells: Rosetta (DE3) pLysS (E. coli); details: CD at 222 nm; 10 µM LBD; GW7647 at 10 µM
T1 sequence (Q07869 200-468): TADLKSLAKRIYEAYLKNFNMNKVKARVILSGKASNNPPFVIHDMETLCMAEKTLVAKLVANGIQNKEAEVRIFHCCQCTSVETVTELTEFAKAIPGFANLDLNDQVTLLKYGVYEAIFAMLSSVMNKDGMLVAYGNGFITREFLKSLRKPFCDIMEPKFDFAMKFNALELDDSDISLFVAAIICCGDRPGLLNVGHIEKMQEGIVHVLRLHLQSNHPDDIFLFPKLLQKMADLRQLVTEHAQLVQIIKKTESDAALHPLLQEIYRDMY
Method: (§1) PPARα/δ/γ-LBD proteins (10 µM) were incubated with different concentrations of ligands in buffer C consisting of 20 mM Tris-HCl (pH 8.0), 150 mM NaCl, 1 mM Tris 2-carboxyethylphosphine (TCEP)-HCl, and 10% glycerol. The circular dichroism (CD) spectra were monitored within a 200–260 nm range at increasing temperatures from 30 °C to 70 °C (2 °C/min) using a J-1500 spectropolarimeter equipped with a PTC-510 thermal controller (JASCO, Tokyo, Japan). […] The ligand-induced increases in the Tm values were defined as ∆Tm.
(§2) Nuclear receptors, including PPARs, display an increased thermal stability upon ligand binding, which is detectable through CD spectroscopy.
(§3) Figure 3 Circular dichroism-based PPARα/δ/γ-LBD thermal stability assay. […] Data are presented as the mean ± SE of three or four (in parentheses) independent experiments. Differences vs. basal levels (with 0.1% DMSO) were statistically assessed by one-way ANOVA, followed by a Dunnett’s post hoc test: * p < 0.05, ** p < 0.01, and *** p < 0.001.

[2] = target: T1, PPARα-LBD; set-up: Human PPARα-LBD (amino acids 200–468); made in house; host or cells: Rosetta (DE3) pLysS (E. coli); method as in PMID 33205029; details: read-out: EC50 in the PGC1α recruitment activity (PPARα); cited from earlier work
[3] = target: T2, PPARδ-LBD (Homo sapiens, UniProt Q03181); assay: Thermal stability assay using circular dichroism spectroscopy; assay type: binding; set-up: PPARδ-LBD (amino acids 170–441); His tag (pET28a) (N); made in house; host or cells: Rosetta (DE3) pLysS (E. coli); details: CD at 222 nm; 10 µM LBD; GW501516 at 50 µM
T2 sequence (Q03181 170-441): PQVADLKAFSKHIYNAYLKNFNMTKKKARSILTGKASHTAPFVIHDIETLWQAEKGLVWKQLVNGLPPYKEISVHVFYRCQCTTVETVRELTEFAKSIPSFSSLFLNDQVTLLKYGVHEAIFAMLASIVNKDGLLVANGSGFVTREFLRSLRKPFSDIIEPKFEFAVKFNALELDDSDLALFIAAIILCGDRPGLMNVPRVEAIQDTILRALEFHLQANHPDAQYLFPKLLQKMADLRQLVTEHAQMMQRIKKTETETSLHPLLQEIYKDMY
Method: as §1, §2, §3

[4] = target: T3, human PPARδ (Homo sapiens, UniProt Q03181); assay: Transactivation assay (GAL4–hPPARδ-LBD chimera, luciferase reporter, COS-7 cells); assay type: cell-based; details: COS-7, read-out: Efficacy, PPARδ transactivation (% of the maximal response)
T3 construct: expressed in transfected cells; host or cells: COS-7
T3 sequence (Q03181 211-439 limits assumed): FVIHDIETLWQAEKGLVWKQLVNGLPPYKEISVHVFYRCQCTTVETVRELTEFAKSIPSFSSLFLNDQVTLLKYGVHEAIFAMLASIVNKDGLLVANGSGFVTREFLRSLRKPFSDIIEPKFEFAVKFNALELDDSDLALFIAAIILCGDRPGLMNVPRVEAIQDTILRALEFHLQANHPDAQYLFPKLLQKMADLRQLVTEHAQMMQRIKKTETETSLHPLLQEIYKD
Method: (§4) The pSG5-GAL–hPPARα/δ/γ plasmids express fusion proteins comprising the yeast transcription factor GAL4 DNA-binding domain and each of the human PPARα/δ/γ-LBDs. The MH100(UAS)×4-tk-Luc plasmid contains four copies of the MH100 GAL4 binding site and the Firefly luciferase gene. The cells were transfected with those plasmids and were treated with various PPAR ligands, and both Firefly and Renilla luciferase activities were measured using the Dual-Glo Luciferase Assay System (Promega, Madison, WI, USA) as described previously. […] GW1929 was purchased from Sigma-Aldrich (St. Louis, MO, USA).
(§5) For the undertaking of the comparison of the potency, efficacy, and selectivity of the five PPAR ligands (Figure 1A) against the PPAR subtypes, we evaluated their PPARα/δ/γ activation using three different methods: a cell-based transactivation assay, a coactivator recruitment assay, and a thermal stability assay, as we previously performed on three fibrates (namely, bezafibrate, fenofibric acid, and pemafibrate). The cell-based transactivation assay utilizing the Gal4–PPAR-LBD system is the most widely used method for the determination of PPAR activation by certain ligands, although their responses depend on the used cell types in which several coactivators with altered functions are differentially expressed.
(§6) Figure 1 LBD-mediated human PPARα/δ/γ transactivation by PPAR ligands. (A) Chemical structures of the five PPAR ligands used in this study. […] Data are presented as the mean ± standard error (SE) of three independent experiments with duplicate samples.

[5] = target: T4, human PPARα (Homo sapiens, UniProt Q07869); assay: Transactivation assay (GAL4–hPPARα-LBD chimera, luciferase reporter, COS-7 cells); assay type: cell-based; details: 100% = 1 µM GW7647, read-out: Efficacy, PPARα transactivation (% of the maximal response)
T4 construct: expressed in transfected cells; host or cells: COS-7
T4 sequence (Q07869 239-466 limits assumed): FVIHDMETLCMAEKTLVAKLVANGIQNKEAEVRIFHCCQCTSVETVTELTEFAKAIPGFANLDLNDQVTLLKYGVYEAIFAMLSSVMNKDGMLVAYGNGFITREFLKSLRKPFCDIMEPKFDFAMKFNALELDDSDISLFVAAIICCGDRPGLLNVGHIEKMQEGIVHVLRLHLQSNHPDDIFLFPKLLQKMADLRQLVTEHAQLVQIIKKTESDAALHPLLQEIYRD
Method: as §4, §5, §6

[6] = target: T5, PPARγ-LBD (Homo sapiens, UniProt P37231); assay: Thermal stability assay using circular dichroism spectroscopy; assay type: binding; set-up: PPARγ-LBD (amino acids 203–477 in isoform 1); His tag (pET28a) (N); made in house; host or cells: Rosetta (DE3) pLysS (E. coli); details: CD at 222 nm; 10 µM LBD; GW1929 at 10 µM
T5 sequence (P37231 203-477 isoform P37231-2): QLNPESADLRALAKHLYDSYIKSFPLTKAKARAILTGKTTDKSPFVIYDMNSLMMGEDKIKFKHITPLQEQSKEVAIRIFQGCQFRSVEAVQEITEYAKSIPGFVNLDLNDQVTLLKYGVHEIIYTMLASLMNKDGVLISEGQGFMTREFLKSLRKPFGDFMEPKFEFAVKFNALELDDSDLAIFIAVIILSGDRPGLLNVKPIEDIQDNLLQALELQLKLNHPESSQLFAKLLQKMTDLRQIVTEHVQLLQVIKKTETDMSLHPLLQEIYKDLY
Method: as §1, §2, §3

[7] = target: T6, Human PPARα-LBD (amino acids 200–468), amino-terminal His-tagged (human, UniProt Q07869 200-468); assay: FRET or BRET; LANCE Ultra TR-FRET; His-tagged LBD (400 nM solution, 9.5 µL) + biotin-PGC1α (4 µM, 5 µL) or biotin-SRC1 peptide (8 µM, 5 µL), Eu-W1024 anti-6×His antibody / ULight-Streptavidin, 2 h, room temperature; buffer A (10 mM HEPES-NaOH pH 7.4, 150 mM NaCl, 0.005% Tween 20, 0.1% BSA) for PPARα/γ-LBD, buffer B (50 mM HEPES-NaOH pH 7.4, 50 mM KCl, 1 mM EDTA, 0.5 mM DTT, 0.1% BSA) for PPARδ-LBD; ligand: reference …; details: both partners purified
T6 construct: The His tag is detected by the anti-6xHis antibody in the TR-FRET assay; A delipidized preparation was used for some PPARα crystals; also called hPPARα-LBD; not shown: His tag, N-terminal, kept
T6 sequence (looked up): T1 sequence (Q07869 200-468)

Molecule: CC(C)(Oc1ccc(Cl)cc1)C(=O)O [clofibric acid]
EC50 [2]: 574 µM

Molecule: CCc1ccc(CCOc2ccc(CC3SC(=O)NC3=O)cc2)nc1 (centres unmarked) [pioglitazone]
Effect on Tm of PPARδ-LBD (in words) [3]: no effects
Emax [4]: 0.518%
Effect on Tm of PPARα-LBD (in words) [1]: no effects
Emax [5]: 25.2%

Molecule: GW1929
Effect on Tm of PPARγ-LBD (in words) [6]: highly increased Tm values

Now from value to molecule:

Effect on Tm of PPARα-LBD (in words) [1]: highly increased Tm values
Molecule: CC(C)(Sc1ccc(CCN(CCCCC2CCCCC2)C(=O)NC2CCCCC2)cc1)C(=O)O [GW7647]

binding result [7]: binds
B1: biotin-labeled PPARγ coactivator 1α (PGC1α) coactivator peptide (amino acids 137–155) (peptide)
peptide: Biotin-EAEEPSLLKKLLLAPANTQ
notes: also called biotin-PGC1α; source: synthetic peptide (GenScript)
